From PubChem BioAssay AID1918947 (Molecular Pharmacology Branch, DTP, NCI, 2023) come the findings set out here.

The subject of the experiment is A498 complex spheroid viability. The experiment can be described thus: Anticancer human tumor A498 cell line growth inhibition.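 On all read-outs here: spheroids exposed to agents for seven days before readout.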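 On viability, T/C: 100% = DMSO vehicle-treated spheroids.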 The note with it: for viability, T/C: stronger effect = lower value. Put shortly:
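Complex spheroids of tumor cells with HUVEC and human MSCs, exposed to iadademstat combined with other agents. Each agent tested in half-log steps from near clinical Cmax (else 10 microM top), DMSO ≤0.25%.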

[1] abbreviates: curve of first compound, second compound 0.1 µM.
Where [2] appears, read: curve of first compound, second compound 0.316 µM.
Where [3] appears, read: curve of first compound, second compound 1 µM.
Setting [4] is: curve of first compound, second compound 3.16 µM.
Where [5] appears, read: curve of first compound, second compound 10 µM.
Setting [6] is: second compound 0.1 µM, first compound 0.00316 µM.
[7] abbreviates: second compound 0.1 µM, first compound 0.01 µM.
Where [8] appears, read: second compound 0.1 µM, first compound 0.0316 µM.
The mark [9] stands for this setting: second compound 0.1 µM, first compound 0.1 µM.
Where [10] appears, read: second compound 0.1 µM, first compound 0.316 µM.
[11] abbreviates: second compound 0.1 µM, first compound 1 µM.
Setting [12] is: second compound 0.316 µM, first compound 0.00316 µM.
The mark [13] stands for this setting: second compound 0.316 µM, first compound 0.01 µM.
The mark [14] stands for this setting: second compound 0.316 µM, first compound 0.0316 µM.
Where [15] appears, read: second compound 0.316 µM, first compound 0.1 µM.
The mark [16] stands for this setting: second compound 0.316 µM, first compound 0.316 µM.
[17] abbreviates: second compound 0.316 µM, first compound 1 µM.
Where [18] appears, read: second compound 1 µM, first compound 0.00316 µM.
Where [19] appears, read: second compound 1 µM, first compound 0.01 µM.
Where [20] appears, read: second compound 1 µM, first compound 0.0316 µM.
[21] abbreviates: second compound 1 µM, first compound 0.1 µM.
Where [22] appears, read: second compound 1 µM, first compound 0.316 µM.
The mark [23] stands for this setting: second compound 1 µM, first compound 1 µM.
Setting [24] is: second compound 3.16 µM, first compound 0.00316 µM.
Setting [25] is: second compound 3.16 µM, first compound 0.01 µM.
Where [26] appears, read: second compound 3.16 µM, first compound 0.0316 µM.
The mark [27] stands for this setting: second compound 3.16 µM, first compound 0.1 µM.
Setting [28] is: second compound 3.16 µM, first compound 0.316 µM.
Setting [29] is: second compound 3.16 µM, first compound 1 µM.
Setting [30] is: second compound 10 µM, first compound 0.00316 µM.
Where [31] appears, read: second compound 10 µM, first compound 0.01 µM.
Where [32] appears, read: second compound 10 µM, first compound 0.0316 µM.
Where [33] appears, read: second compound 10 µM, first compound 0.1 µM.
[34] abbreviates: second compound 10 µM, first compound 0.316 µM.
Setting [35] is: second compound 10 µM, first compound 1 µM.

pIC50: −log10 of the molar value. Where “and” joins values, the source holds several entries; their conditions need not be identical. Equal values may be shown once.

The viability, T/C is the result in the treated group divided by that in the control group, in per cent. The term pIC50 denotes the negative decadic logarithm of the IC50, by convention in mol/L. In the case of `NC1CCC(NC2CC2c2ccccc2)CC1` (stereo not drawn), the viability, T/C is 86.8% [middle of 25 runs] (compound 0.1 µM); 85.2% and 90.6% (compound 0.316 µM); 86% [middle of 25 runs] (compound 1 µM); 84.7% [middle of 25 runs] (compound 3.16 µM); 75.1% [middle of 23 runs] (compound 10 µM). Moreover, the pIC50 (compound alone, run of 11/29/2021) was less than 5.00.
In the case of `O=C(C=Cn1cnc(-c2cc(C(F)(F)F)cc(C(F)(F)F)c2)n1)NNc1cnccn1` + NC1CC1c1ccc(-c2cccc(O)c2)cc1, the pIC50 reads like this: under setting [1], 7.93; under setting [2], 8.01; under setting [3], 8.04; under setting [4], 8.20; under setting [5], 8.14. For the same compound, the viability, T/C is, setting by setting: under setting [6], 69.8%; under setting [7], 50.3%; under setting [8], 40.5%; under setting [9], 29.3%; under setting [10], 25.2%; under setting [11], 19.3%. The viability, T/C is, setting by setting: under setting [12], 72.2%; under setting [13], 47.7%; under setting [14], 37.5%; under setting [15], 28.8%; under setting [16], 25.8%; under setting [17], 20.1%. Besides, the viability, T/C under setting [18] is 70.9%; the viability, T/C under setting [19] is 46.9%; the viability, T/C under setting [20] was 37.1%; the viability, T/C under setting [21] was 28.4%; the viability, T/C under setting [22] is 27.8%; the viability, T/C under setting [23] was 20.7%. The viability, T/C is, setting by setting: under setting [24], 61%; under setting [25], 41.9%; under setting [26], 34.8%; under setting [27], 26.8%; under setting [28], 27%; under setting [29], 22.3%. In addition, the viability, T/C under setting [30] is 61.3%; the viability, T/C under setting [31] was 43.8%; the viability, T/C under setting [32] was 36.5%; the viability, T/C under setting [33] was 31.8%; the viability, T/C under setting [34] was 24.1%; the viability, T/C under setting [35] is 21.6%.
On to `CC1COCCN1c1cc(-c2ccnn2C)c2ccnc(-c3ccn[nH]3)c2n1` (stereo not drawn) + NC1CC1c1ccc(-c2cccc(O)c2)cc1, for which the pIC50 runs as follows: under setting [1], 7.51; under setting [2], 7.53; under setting [3], 7.43; under setting [4], 7.55; under setting [5], 7.50. In addition, the viability, T/C under setting [6] was 104%; the viability, T/C under setting [7] was 88.1%; the viability, T/C under setting [8] was 48.2%; the viability, T/C under setting [9] was 23.6%; the viability, T/C under setting [10] was 16.9%; the viability, T/C under setting [11] was 11.8%. Further, the viability, T/C is 108% under setting [12]; 94% under setting [13]; 45.8% under setting [14]; 25.3% under setting [15]; 18.1% under setting [16]; 13% under setting [17]. The viability, T/C by setting is: under setting [18], 105%; under setting [19], 87%; under setting [20], 55.5%; under setting [21], 22.8%; under setting [22], 17.7%; under setting [23], 12.3%. Also, the viability, T/C under setting [24] was 109%; the viability, T/C under setting [25] is 85.5%; the viability, T/C under setting [26] is 45.8%; the viability, T/C under setting [27] was 23.3%; the viability, T/C under setting [28] is 15.6%; the viability, T/C under setting [29] is 12.9%. Besides, the viability, T/C under setting [30] was 91.9%; the viability, T/C under setting [31] is 80.3%; the viability, T/C under setting [32] was 49%; the viability, T/C under setting [33] is 24.8%; the viability, T/C under setting [34] was 16.3%; the viability, T/C under setting [35] was 11.4%.
As to `CC(C)CC(NC(=O)CNC(=O)c1cc(Cl)ccc1Cl)B1OC(=O)CC(CC(=O)O)(C(=O)O)O1` (stereo not drawn), the viability, T/C (compound 0.000316 µM) was 102% and 107%; the viability, T/C (compound 0.001 µM) was 106% and 107%; the viability, T/C (compound 0.00316 µM) was 69.4% and 75.4%; the viability, T/C (compound 0.01 µM) is 24.7% and 21.5%; the viability, T/C (compound 0.0316 µM) was 5.96% and 6.51%; the viability, T/C (compound 0.1 µM) was 2.46% and 1.92%. Moreover, the negative logarithm of the IC50 (pIC50) (curve of compound) was 8.28 and 8.26.
